Measured values published in patent publication US8188277B2, “Aromatic compounds for suppressing the generation of collagen” (Otsuka Pharmaceutical Co., Ltd., priority 2004, dated 2012).
Where a name gives a salt, the structure may show the parent alone.

| Compound | melting point |
| --- | --- |
| O=C(Nc1ccc(Oc2ccc(CCC(=O)N3CCN(c4cccnc4)CC3)cc2)cc1)c1ccc(Cl)c(Cl)c1 [compound 466] | 153 to 155 °C |
| CC(=O)N(CC(=O)N1CCN(Cc2ccccc2)CC1)c1ccc(Oc2ccc(NC(=O)c3ccc(C(F)(F)F)cc3)cn2)cc1 [compound 771] | 161 to 162 °C |
| O=C(Nc1ccc(Oc2ccc(C(O)CN3CCOCC3)cc2)c(F)c1)c1ccc(Cl)c(Cl)c1 (stereo not drawn) [compound 2677] | 142 to 145 °C |
| O=C(Nc1ccc(Oc2ccc(N3CCN(S(=O)(=O)c4ccccc4)CC3)cc2)cc1)c1ccc(Cl)c(Cl)c1 [compound 2031, N-{4-[4-(4-benzenesulfonylpiperazin-1-yl)phenoxy]phenyl}-3,4-dichlorobenzamide] | 191 to 192 °C |
| CCN(CC(=O)N1CCN(Cc2ccoc2)CC1)c1ccc(Oc2ccc(NC(=O)c3ccc(C(F)(F)F)cc3)cn2)c(OC)c1 [compound 784] | 174 to 176 °C |
| Cc1cc(N2CCN(Cc3ccc4c(c3)OCO4)C2=O)ccc1Oc1ccc(NC(=O)c2ccc(C(F)(F)F)cc2)cn1 [compound 1504, N-{6-[2-methyl-4-(2-oxo-3-piperonylimidazolidin-1-yl)phenoxy]pyridin-3-yl}-4-trifluoromethylbenzamide] | 188 to 189 °C |
| CCN(CC(=O)N1CCN(Cc2ccc3c(c2)OCO3)CC1)c1ccc(Oc2ccc(NC(=O)c3ccc(C(F)(F)F)cc3)cn2)c(F)c1 [compound 775] | 170 to 172 °C |
| Cc1cc(N(C)CC(=O)N2CCN(Cc3ccc4c(c3)OCO4)CC2)ccc1Oc1ccc(NC(=O)c2ccc(Cl)c(Cl)c2)cn1 (as salt: hydrochloride) [compound 1512] | 183 to 185 °C (dec.) |
| CCN(CC(=O)N1CCN(Cc2ccccc2)CC1)c1ccc(Oc2ccc(NC(=O)c3ccc(Cl)c(Cl)c3)cn2)c(C)c1 [compound 1514] | 102 to 105 °C |
| O=C(Nc1ccc(Oc2ccc(N3CCN(Cc4ccccc4)C3=O)cc2)nc1)c1ccc(C(F)(F)F)cc1 [compound 1181] | 203 to 204 °C |
| O=C(CN1CCOCC1)c1ccc(Oc2ccc(NC(=O)c3ccc(Cl)c(Cl)c3)cc2F)cc1 [compound 2563] | 177 to 178 °C |
| O=C(Nc1ccc(Oc2ccc(C(=O)N3CCOCC3)cc2)cc1)c1ccc(Cl)c(Cl)c1 [Example No. 10] | 189 to 192 °C |
| Cc1cc(N(C)CC(=O)N2CCN(Cc3ccccc3)CC2)ccc1Oc1ccc(NC(=O)c2ccc(Cl)c(Cl)c2)cn1 [compound 1516] | 111 to 113 °C |
| O=C(C1CCN(c2ccc(Oc3ccc(NS(=O)(=O)c4ccc(Cl)c(Cl)c4)cn3)cc2)CC1)N1CCN(Cc2ccccc2)CC1 [compound 2710, N-(6-{4-[4-(4-benzylpiperazine-1-carbonyl)piperidin-1-yl]phenoxy}pyridin-3-yl)-3,4-dichlorobenzenesulfonamide] | 185 to 189 °C |
| O=C(Nc1ccc(Oc2ccc(N3CCN(C(=O)COc4ccccc4)CC3)cc2)cc1)c1ccc(Cl)c(Cl)c1 [compound 2052] | 171 to 173 °C |
| Cc1cc(N(C)CC(=O)N2CCN(C(=O)c3ccc4c(c3)OCO4)CC2)ccc1Oc1ccc(NC(=O)c2ccc(Cl)c(Cl)c2)cn1 [compound 2054] | 133 to 135 °C |
| O=C(Nc1ccc(Oc2ccc(C(=O)N3CCOCC3)cc2)c(F)c1)c1ccc(Cl)c(Cl)c1 [Example No. 11] | 203 to 204 °C |

| Compound | melting point |
| --- | --- |
| Cc1cc(N2CCCN(Cc3ccc4c(c3)OCO4)C2=O)ccc1Oc1ccc(NC(=O)c2ccc(C(F)(F)F)cc2)cn1 [compound 1183] | 165 to 166 °C |
| Cc1cc(N2CCC(CC(=O)N3CCN(Cc4ccc5c(c4)OCO5)CC3)CC2)ccc1Oc1ccc(NS(=O)(=O)c2ccc(C(F)(F)F)cc2)cn1 [compound 2703, N-[6-(4-{4-[2-(4-piperonylpiperazin-1-yl)-2-oxoethyl]piperidin-1-yl}-2-methylphenoxy)pyridin-3-yl]-4-trifluoromethylbenzenesulfonamide] | 156 to 158 °C |
| CCN(CC(=O)N1CCN(Cc2ccc3c(c2)OCO3)CC1)c1ccc(Oc2ccc(NS(=O)(=O)c3ccc(C(F)(F)F)cc3)cn2)c(F)c1 [compound 2712, N-[6-(4-{[2-(4-piperonylpiperazin-1-yl)-2-oxoethyl]ethylamino}-2-fluorophenoxy)pyridin-3-yl]-4-trifluoromethylbenzenesulfonamide] | 177.8 to 180.1 °C |
| Cc1cc(N(C)CC(=O)N2CCN(Cc3ccoc3)CC2)ccc1Oc1ccc(NC(=O)c2ccc(Cl)c(Cl)c2)cn1 [compound 718] | 116.5 to 118 °C |
| Cc1cc(N(C)CC(=O)N2CCN(Cc3ccc4c(c3)OCO4)CC2)ccc1Oc1ccc(NC(=O)c2ccc(-n3cccc3)cc2)cn1 [compound 2711, N-[6-(4-{[2-(4-piperonylpiperazin-1-yl)-2-oxoethyl]methylamino}-2-methylphenoxy)pyridin-3-yl]-4-pyrrole-1-ylbenzamide] | 163.1 to 166.5 °C |
| Cc1cc(N(C)CC(=O)N2CCN(Cc3ccccc3)CC2)ccc1Oc1ccc(NC(=O)c2ccc(C(F)(F)F)cc2)cn1 [compound 1515] | 110 to 111 °C |
| COc1cc(N(C)CC(=O)N2CCN(Cc3ccoc3)CC2)ccc1Oc1ccc(NC(=O)c2ccc(C(F)(F)F)cc2)cn1 [compound 785] | 160 to 164 °C |
| O=C(Nc1ccc(Oc2ccc(C3=CCN(CCCn4ccnc4)CC3)cc2)cc1)c1ccc(Cl)c(Cl)c1 [compound 2486, 3,4-Dichloro-N-(4-{4-[1-(3-imidazole-1-ylpropyl)-1,2,3,6-tetrahydropyridine-4-yl]phenoxy}phenyl)-benzamide] | 169 to 171 °C |
| CCN(CC(=O)N1CCN(Cc2ccc3c(c2)OCO3)CC1)c1ccc(Oc2ccc(NC(=O)c3ccc(Cl)c(Cl)c3)cn2)c(F)c1 [compound 728] | 149 to 151 °C |
| CN(CC(=O)N1CCN(Cc2ccc3c(c2)OCO3)CC1)c1ccc(Oc2ccc(NS(=O)(=O)c3ccc(Cl)c(Cl)c3)cn2)c(F)c1 [compound 1615, 3,4-dichloro-N-[6-(2-fluoro-4-{methyl[2-oxo-2-(4-piperonylpiperazin-1-yl)ethyl]amino}phenoxy)pyridin-3-yl]benzenesulfonamide] | 185.6 to 187 °C |
| O=C(Nc1ccc(Oc2ccc(C(=O)N3CCN(c4ccccn4)CC3)cc2)nc1)c1ccc(C(F)(F)F)cc1 [compound 176] | 222 to 224 °C |
| CC(C)(C)OC(=O)N1CCN(C(=O)CCc2ccc(Oc3ccc(NC(=O)c4ccc(Cl)c(Cl)c4)cc3F)cc2)CC1 [compound 464] | 155 to 157 °C |
| COc1ccc(CN2CCCN(c3ccc(Oc4ccc(NC(=O)c5ccc(C(F)(F)F)cc5)cn4)c(C)c3)C2=O)cc1OC [compound 1185] | 155 to 157 °C |
| CN(C(=O)CN1CCOCC1)C1CCN(c2ccc(Oc3ccc(NC(=O)c4ccc(Cl)c(Cl)c4)cc3)cc2)CC1 [compound 2572] | 157 to 160 °C |
| O=C(Nc1ccc(Oc2ccc(N3CCN(C(=O)c4ccc5c(c4)OCO5)CC3)cc2)cc1)c1ccc(Cl)c(Cl)c1 [compound 2053] | 116 to 118 °C |
| CCN(CC(=O)N1CCN(Cc2ccc3c(c2)OCO3)CC1)c1ccc(Oc2ccc(NC(=O)c3ccc(C(F)(F)F)cc3)cn2)cc1 [compound 774] | 178 to 180 °C |
